# Measured values from patent US10485235B2, “Aryloxypyrimidinyl ethers as herbicides” (FMC Corporation, priority 2015, dated 2019).
# System: barnyardgrass (Echinochloa crus-galli)
# Experiment: Test A postemergence, barnyardgrass
# Format: in vivo
# Settings: Echinochloa crus-galli, post-emergence, 240 h; 31 g ai/ha, postemergence; 0 to 100 scale, 0 is no effect, 100 is complete control; approximately 10 days; read-out: Plant response rating, Barnyardgrass
# Outline: (§1)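 Scores (0 no effect to 100 complete control) come from visual comparison of treated and untreated plants kept about 10 days in a greenhouse. Growth medium was a loam/sand blend; preemergence treatment was a directed soil spray, postemergence treatment went onto plants at the 1–2 leaf stage.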
row,Structure (SMILES),pest or weed control at 31 g/ha [%]
1,Cc1cccc(Oc2ncc(Cl)cn2)c1OCC(F)(F)F [Compound 63],0
2,FC(F)(F)COc1c(Cl)cccc1Oc1ncc(Cl)cn1 [Compound 42],0

# Same assay, conditions: Echinochloa crus-galli, post-emergence, 240 h; 125 g ai/ha, postemergence; 0 to 100 scale, 0 is no effect, 100 is complete control; approximately 10 days; read-out: Plant response rating, Barnyardgrass
row,Structure (SMILES),pest or weed control at 125 g/ha [%]
1,Fc1cccc(Oc2ncc(Cl)cn2)c1OCC(F)(F)F [Compound 28],0
2,"CCCCOc1c(Br)cccc1Oc1ncc(Cl)cn1 [Compound 13, 2-[3-bromo-2-(butoxy)phenoxy]-5-chloropyrimidine]",90
3,"CCCCOc1c(C#N)cccc1Oc1ncc(Cl)cn1 [Compound 35, 2-butoxy-3-[(5-chloro-2-pyrimidinyl)oxy]benzonitrile]",80
4,"N#Cc1cccc(Oc2ncc(Cl)cn2)c1OCC(F)(F)C(F)(F)F [Compound 10, 3-[(5-chloro-2-pyrimidinyl)oxy]-2-(2,2,3,3,3-pentafluoropropoxy)benzonitrile]",90
5,Cc1cccc(Oc2ncc(Cl)cn2)c1OCC(F)(F)F [Compound 63],0
6,"FC(F)C(F)(F)COc1c(Br)cccc1Oc1ncc(Cl)cn1 [Compound 18, 2-[3-bromo-2-(2,2,3,3-tetrafluoropropoxy)phenoxy]-5-chloropyrimidine]",30
7,FC(F)(F)COc1c(Cl)cccc1Oc1ncc(Cl)cn1 [Compound 42],10

# Same assay, conditions: Echinochloa crus-galli, post-emergence, 240 h; 500 g ai/ha, postemergence; 0 to 100 scale, 0 is no effect, 100 is complete control; approximately 10 days; read-out: Plant response rating, Barnyardgrass
row,Structure (SMILES),pest or weed control at 500 g/ha [%]
1,Fc1cccc(Oc2ncc(Cl)cn2)c1OCC(F)(F)F [Compound 28],20
2,"CCCCOc1c(Br)cccc1Oc1ncc(Cl)cn1 [Compound 13, 2-[3-bromo-2-(butoxy)phenoxy]-5-chloropyrimidine]",100
3,"CCCCOc1c(C#N)cccc1Oc1ncc(Cl)cn1 [Compound 35, 2-butoxy-3-[(5-chloro-2-pyrimidinyl)oxy]benzonitrile]",100
4,"N#Cc1cccc(Oc2ncc(Cl)cn2)c1OCC(F)(F)C(F)(F)F [Compound 10, 3-[(5-chloro-2-pyrimidinyl)oxy]-2-(2,2,3,3,3-pentafluoropropoxy)benzonitrile]",100
5,"FC(F)C(F)(F)COc1c(Br)cccc1Oc1ncc(Cl)cn1 [Compound 18, 2-[3-bromo-2-(2,2,3,3-tetrafluoropropoxy)phenoxy]-5-chloropyrimidine]",100

# System: foxtail, giant (giant foxtail, Setaria faberii)
# Experiment: Test A postemergence, giant foxtail
# Format: in vivo
# Settings: Setaria faberi, post-emergence, 240 h; 31 g ai/ha, postemergence; 0 to 100 scale, 0 is no effect, 100 is complete control; approximately 10 days; read-out: Plant response rating, Foxtail, Giant
# Outline: as §1
row,Structure (SMILES),pest or weed control at 31 g/ha [%]
1,Cc1cccc(Oc2ncc(Cl)cn2)c1OCC(F)(F)F [Compound 63],0
2,FC(F)(F)COc1c(Cl)cccc1Oc1ncc(Cl)cn1 [Compound 42],0

# Same assay, conditions: Setaria faberi, post-emergence, 240 h; 125 g ai/ha, postemergence; 0 to 100 scale, 0 is no effect, 100 is complete control; approximately 10 days; read-out: Plant response rating, Foxtail, Giant
row,Structure (SMILES),pest or weed control at 125 g/ha [%]
1,Fc1cccc(Oc2ncc(Cl)cn2)c1OCC(F)(F)F [Compound 28],0
2,"CCCCOc1c(Br)cccc1Oc1ncc(Cl)cn1 [Compound 13, 2-[3-bromo-2-(butoxy)phenoxy]-5-chloropyrimidine]",90
3,"CCCCOc1c(C#N)cccc1Oc1ncc(Cl)cn1 [Compound 35, 2-butoxy-3-[(5-chloro-2-pyrimidinyl)oxy]benzonitrile]",90
4,"N#Cc1cccc(Oc2ncc(Cl)cn2)c1OCC(F)(F)C(F)(F)F [Compound 10, 3-[(5-chloro-2-pyrimidinyl)oxy]-2-(2,2,3,3,3-pentafluoropropoxy)benzonitrile]",100
5,Cc1cccc(Oc2ncc(Cl)cn2)c1OCC(F)(F)F [Compound 63],0
6,"FC(F)C(F)(F)COc1c(Br)cccc1Oc1ncc(Cl)cn1 [Compound 18, 2-[3-bromo-2-(2,2,3,3-tetrafluoropropoxy)phenoxy]-5-chloropyrimidine]",40
7,FC(F)(F)COc1c(Cl)cccc1Oc1ncc(Cl)cn1 [Compound 42],10

# Same assay, conditions: Setaria faberi, post-emergence, 240 h; 500 g ai/ha, postemergence; 0 to 100 scale, 0 is no effect, 100 is complete control; approximately 10 days; read-out: Plant response rating, Foxtail, Giant
row,Structure (SMILES),pest or weed control at 500 g/ha [%]
1,Fc1cccc(Oc2ncc(Cl)cn2)c1OCC(F)(F)F [Compound 28],20
2,"CCCCOc1c(Br)cccc1Oc1ncc(Cl)cn1 [Compound 13, 2-[3-bromo-2-(butoxy)phenoxy]-5-chloropyrimidine]",100
3,"CCCCOc1c(C#N)cccc1Oc1ncc(Cl)cn1 [Compound 35, 2-butoxy-3-[(5-chloro-2-pyrimidinyl)oxy]benzonitrile]",90
4,"N#Cc1cccc(Oc2ncc(Cl)cn2)c1OCC(F)(F)C(F)(F)F [Compound 10, 3-[(5-chloro-2-pyrimidinyl)oxy]-2-(2,2,3,3,3-pentafluoropropoxy)benzonitrile]",100
5,"FC(F)C(F)(F)COc1c(Br)cccc1Oc1ncc(Cl)cn1 [Compound 18, 2-[3-bromo-2-(2,2,3,3-tetrafluoropropoxy)phenoxy]-5-chloropyrimidine]",100

# System: ryegrass, Italian (Italian ryegrass, Lolium multiflorum)
# Experiment: Test A postemergence, Italian ryegrass
# Format: in vivo
# Settings: Lolium multiflorum, post-emergence, 240 h; 31 g ai/ha, postemergence; 0 to 100 scale, 0 is no effect, 100 is complete control; approximately 10 days; read-out: Plant response rating, Ryegrass, Italian
# Outline: as §1
row,Structure (SMILES),pest or weed control at 31 g/ha [%]
1,Cc1cccc(Oc2ncc(Cl)cn2)c1OCC(F)(F)F [Compound 63],0
2,FC(F)(F)COc1c(Cl)cccc1Oc1ncc(Cl)cn1 [Compound 42],0

# Same assay, conditions: Lolium multiflorum, post-emergence, 240 h; 125 g ai/ha, postemergence; 0 to 100 scale, 0 is no effect, 100 is complete control; approximately 10 days; read-out: Plant response rating, Ryegrass, Italian
row,Structure (SMILES),pest or weed control at 125 g/ha [%]
1,Fc1cccc(Oc2ncc(Cl)cn2)c1OCC(F)(F)F [Compound 28],0
2,"CCCCOc1c(Br)cccc1Oc1ncc(Cl)cn1 [Compound 13, 2-[3-bromo-2-(butoxy)phenoxy]-5-chloropyrimidine]",20
3,"CCCCOc1c(C#N)cccc1Oc1ncc(Cl)cn1 [Compound 35, 2-butoxy-3-[(5-chloro-2-pyrimidinyl)oxy]benzonitrile]",40
4,"N#Cc1cccc(Oc2ncc(Cl)cn2)c1OCC(F)(F)C(F)(F)F [Compound 10, 3-[(5-chloro-2-pyrimidinyl)oxy]-2-(2,2,3,3,3-pentafluoropropoxy)benzonitrile]",30
5,Cc1cccc(Oc2ncc(Cl)cn2)c1OCC(F)(F)F [Compound 63],0
6,"FC(F)C(F)(F)COc1c(Br)cccc1Oc1ncc(Cl)cn1 [Compound 18, 2-[3-bromo-2-(2,2,3,3-tetrafluoropropoxy)phenoxy]-5-chloropyrimidine]",0
7,FC(F)(F)COc1c(Cl)cccc1Oc1ncc(Cl)cn1 [Compound 42],0

# Same assay, conditions: Lolium multiflorum, post-emergence, 240 h; 500 g ai/ha, postemergence; 0 to 100 scale, 0 is no effect, 100 is complete control; approximately 10 days; read-out: Plant response rating, Ryegrass, Italian
row,Structure (SMILES),pest or weed control at 500 g/ha [%]
1,Fc1cccc(Oc2ncc(Cl)cn2)c1OCC(F)(F)F [Compound 28],0
2,"CCCCOc1c(Br)cccc1Oc1ncc(Cl)cn1 [Compound 13, 2-[3-bromo-2-(butoxy)phenoxy]-5-chloropyrimidine]",90
3,"CCCCOc1c(C#N)cccc1Oc1ncc(Cl)cn1 [Compound 35, 2-butoxy-3-[(5-chloro-2-pyrimidinyl)oxy]benzonitrile]",80
4,"N#Cc1cccc(Oc2ncc(Cl)cn2)c1OCC(F)(F)C(F)(F)F [Compound 10, 3-[(5-chloro-2-pyrimidinyl)oxy]-2-(2,2,3,3,3-pentafluoropropoxy)benzonitrile]",90
5,"FC(F)C(F)(F)COc1c(Br)cccc1Oc1ncc(Cl)cn1 [Compound 18, 2-[3-bromo-2-(2,2,3,3-tetrafluoropropoxy)phenoxy]-5-chloropyrimidine]",60

# System: kochia (Kochia scoparia)
# Experiment: Test A postemergence, kochia
# Format: in vivo
# Settings: Bassia scoparia, post-emergence, 240 h; 31 g ai/ha, postemergence; 0 to 100 scale, 0 is no effect, 100 is complete control; approximately 10 days; read-out: Plant response rating, Kochia
# Outline: as §1
row,Structure (SMILES),pest or weed control at 31 g/ha [%]
1,Cc1cccc(Oc2ncc(Cl)cn2)c1OCC(F)(F)F [Compound 63],0
2,FC(F)(F)COc1c(Cl)cccc1Oc1ncc(Cl)cn1 [Compound 42],0

# Same assay, conditions: Bassia scoparia, post-emergence, 240 h; 125 g ai/ha, postemergence; 0 to 100 scale, 0 is no effect, 100 is complete control; approximately 10 days; read-out: Plant response rating, Kochia
row,Structure (SMILES),pest or weed control at 125 g/ha [%]
1,Fc1cccc(Oc2ncc(Cl)cn2)c1OCC(F)(F)F [Compound 28],0
2,"CCCCOc1c(Br)cccc1Oc1ncc(Cl)cn1 [Compound 13, 2-[3-bromo-2-(butoxy)phenoxy]-5-chloropyrimidine]",100
3,"CCCCOc1c(C#N)cccc1Oc1ncc(Cl)cn1 [Compound 35, 2-butoxy-3-[(5-chloro-2-pyrimidinyl)oxy]benzonitrile]",100
4,"N#Cc1cccc(Oc2ncc(Cl)cn2)c1OCC(F)(F)C(F)(F)F [Compound 10, 3-[(5-chloro-2-pyrimidinyl)oxy]-2-(2,2,3,3,3-pentafluoropropoxy)benzonitrile]",100
5,Cc1cccc(Oc2ncc(Cl)cn2)c1OCC(F)(F)F [Compound 63],0
6,"FC(F)C(F)(F)COc1c(Br)cccc1Oc1ncc(Cl)cn1 [Compound 18, 2-[3-bromo-2-(2,2,3,3-tetrafluoropropoxy)phenoxy]-5-chloropyrimidine]",100
7,FC(F)(F)COc1c(Cl)cccc1Oc1ncc(Cl)cn1 [Compound 42],10

# Same assay, conditions: Bassia scoparia, post-emergence, 240 h; 500 g ai/ha, postemergence; 0 to 100 scale, 0 is no effect, 100 is complete control; approximately 10 days; read-out: Plant response rating, Kochia
row,Structure (SMILES),pest or weed control at 500 g/ha [%]
1,Fc1cccc(Oc2ncc(Cl)cn2)c1OCC(F)(F)F [Compound 28],10
2,"CCCCOc1c(Br)cccc1Oc1ncc(Cl)cn1 [Compound 13, 2-[3-bromo-2-(butoxy)phenoxy]-5-chloropyrimidine]",100
3,"CCCCOc1c(C#N)cccc1Oc1ncc(Cl)cn1 [Compound 35, 2-butoxy-3-[(5-chloro-2-pyrimidinyl)oxy]benzonitrile]",100
4,"N#Cc1cccc(Oc2ncc(Cl)cn2)c1OCC(F)(F)C(F)(F)F [Compound 10, 3-[(5-chloro-2-pyrimidinyl)oxy]-2-(2,2,3,3,3-pentafluoropropoxy)benzonitrile]",100
5,"FC(F)C(F)(F)COc1c(Br)cccc1Oc1ncc(Cl)cn1 [Compound 18, 2-[3-bromo-2-(2,2,3,3-tetrafluoropropoxy)phenoxy]-5-chloropyrimidine]",100

# System: galium (catchweed bedstraw, Galium aparine)
# Experiment: Test A postemergence, galium
# Format: in vivo
# Settings: Galium, post-emergence, 240 h; 31 g ai/ha, postemergence; 0 to 100 scale, 0 is no effect, 100 is complete control; approximately 10 days; read-out: Plant response rating, Galium
# Outline: as §1
row,Structure (SMILES),pest or weed control at 31 g/ha [%]
1,Cc1cccc(Oc2ncc(Cl)cn2)c1OCC(F)(F)F [Compound 63],0
2,FC(F)(F)COc1c(Cl)cccc1Oc1ncc(Cl)cn1 [Compound 42],0

# Same assay, conditions: Galium, post-emergence, 240 h; 125 g ai/ha, postemergence; 0 to 100 scale, 0 is no effect, 100 is complete control; approximately 10 days; read-out: Plant response rating, Galium
row,Structure (SMILES),pest or weed control at 125 g/ha [%]
1,Fc1cccc(Oc2ncc(Cl)cn2)c1OCC(F)(F)F [Compound 28],0
2,"CCCCOc1c(Br)cccc1Oc1ncc(Cl)cn1 [Compound 13, 2-[3-bromo-2-(butoxy)phenoxy]-5-chloropyrimidine]",90
3,"CCCCOc1c(C#N)cccc1Oc1ncc(Cl)cn1 [Compound 35, 2-butoxy-3-[(5-chloro-2-pyrimidinyl)oxy]benzonitrile]",90
4,"N#Cc1cccc(Oc2ncc(Cl)cn2)c1OCC(F)(F)C(F)(F)F [Compound 10, 3-[(5-chloro-2-pyrimidinyl)oxy]-2-(2,2,3,3,3-pentafluoropropoxy)benzonitrile]",90
5,Cc1cccc(Oc2ncc(Cl)cn2)c1OCC(F)(F)F [Compound 63],0
6,"FC(F)C(F)(F)COc1c(Br)cccc1Oc1ncc(Cl)cn1 [Compound 18, 2-[3-bromo-2-(2,2,3,3-tetrafluoropropoxy)phenoxy]-5-chloropyrimidine]",80
7,FC(F)(F)COc1c(Cl)cccc1Oc1ncc(Cl)cn1 [Compound 42],20

# Same assay, conditions: Galium, post-emergence, 240 h; 500 g ai/ha, postemergence; 0 to 100 scale, 0 is no effect, 100 is complete control; approximately 10 days; read-out: Plant response rating, Galium
row,Structure (SMILES),pest or weed control at 500 g/ha [%]
1,Fc1cccc(Oc2ncc(Cl)cn2)c1OCC(F)(F)F [Compound 28],20
2,"CCCCOc1c(Br)cccc1Oc1ncc(Cl)cn1 [Compound 13, 2-[3-bromo-2-(butoxy)phenoxy]-5-chloropyrimidine]",100
3,"CCCCOc1c(C#N)cccc1Oc1ncc(Cl)cn1 [Compound 35, 2-butoxy-3-[(5-chloro-2-pyrimidinyl)oxy]benzonitrile]",100
4,"N#Cc1cccc(Oc2ncc(Cl)cn2)c1OCC(F)(F)C(F)(F)F [Compound 10, 3-[(5-chloro-2-pyrimidinyl)oxy]-2-(2,2,3,3,3-pentafluoropropoxy)benzonitrile]",100
5,"FC(F)C(F)(F)COc1c(Br)cccc1Oc1ncc(Cl)cn1 [Compound 18, 2-[3-bromo-2-(2,2,3,3-tetrafluoropropoxy)phenoxy]-5-chloropyrimidine]",100
